Legend:
[1] = Loss of tail withdrawal reflex (LOTWR) in rats, single intravenous injection, dose escalation: potent analgesic effect and severe adverse reactions; assay type: in vivo, SD rats; settings: rat, in vivo, single intravenous injection, minimum dose resulting in serious adverse reactions / minimum effective dose, class symbol, read-out: The safety therapeutic index
Experimental: (§1) Using the loss of tail withdrawal reflex (LOTWR) in rats as an indicator, the potent analgesic effect of the compounds according to the present invention was evaluated.
(§2) 1.1 Experimental animals: Adult male SD rats weighing between 220-300 g were selected for the experiment. The rats were housed in sawdust-bedded cages with a temperature of 25±1°C, humidity ranging from 40% to 60%, and a 12-hour light/12-hour dark cycle. Each cage contained no more than 5 rats, with free access to water and food.
(§3) • (1) The compound of the present invention, along with the positive control drug remifentanil and the negative control (vehicle), were administered in fixed volumes. A dose escalation approach was employed to determine the minimum effective dose at which the compound of the present invention produces potent analgesic effects, as well as the minimum dose at which severe adverse reactions first appear. • (2) LOTWR lasting for 30 seconds was used as the criterion for generating potent analgesic effects. During the experiment, drugs were administered via the tail vein of rats, with a dosage volume of 0.6 mL per rat and a dosage rate of 0.02 mL/s. Subsequently, an alligator clip was applied at a distance of 1 cm from the base of the rat's tail, clamping once longitudinally and once transversely before being left in place. Meanwhile, the distal end of the alligator clip was continuously oscillated (30 times/min) to continuously generate stimulation. […] When all results were "no LOTWR" after 10 minutes of testing (5 trials), the test was stopped and recorded as "ineffective." • (3) All compounds would undergo a dose escalation for efficacy evaluation, starting from 1 mg/kg (due to the high potency of remifentanil, the lowest dose was set at 1 µg/kg), followed by 5 mg/kg, 10 mg/kg, 20 mg/kg, and so on (increasing by 20 mg/kg increments after 20 mg/kg). The dose escalation would be stopped when rats show signs of death, and the lowest effective dose and the lowest dose at which severe adverse reactions occur would be recorded throughout the process. In this study, severe adverse reactions are defined as apnea, generalized tonic rigidity, convulsions, opisthotonus, seizures, etc.
(§4) 1.3 Evaluation indicators: the minimum effective dose; the minimum dose resulting in serious adverse reactions; the safety therapeutic index = "the minimum dose resulting in serious adverse reactions" / "the minimum effective dose".

rats = assay: as above; assay type: in vivo, SD rats; settings: Rattus norvegicus, single intravenous injection (tail vein), LOTWR lasting for 30 seconds as criterion, class symbol, read-out: The minimum effective dose
Experimental: as §1, §2, §3, §4

CCCCc1ccc(CNC(=O)NCc2ccsc2)c(N(C)C)c1 [Example 53]
selectivity ratio [1]: ≤ 2
minimal effective dose (rats): ≤ 10 mg/kg

Cc1ccc(CNC(=O)NCc2ccsc2)c(N2CCCCC2)c1 [Example 54]
selectivity ratio [1]: ≤ 2
minimal effective dose (rats): ≤ 10 mg/kg

CCN(CC)c1cc(C)ccc1CNC(=O)NCc1ccsc1 [Example 55]
selectivity ratio [1]: ≤ 2
minimal effective dose (rats): ≤ 10 mg/kg

CN(C)c1cc(CCNC(=O)C2COC2)ccc1CNC(=O)NCc1ccsc1 [Example 56]
selectivity ratio [1]: ≤ 2
minimal effective dose (rats): ≤ 10 mg/kg

CNc1cc(C)ccc1CNC(=O)NCc1ccsc1 [Example 57]
selectivity ratio [1]: ≤ 2
minimal effective dose (rats): 10 to 20 mg/kg

Cc1ccc(CNC(=O)NCc2ncc[nH]2)cc1N(C)C [Example 58]
selectivity ratio [1]: ≤ 2
minimal effective dose (rats): > 30 mg/kg

Cc1ccc(NC(=O)NCc2ncc[nH]2)c(N(C)C)c1 [Example 59]
selectivity ratio [1]: 2 to 4
minimal effective dose (rats): 10 to 20 mg/kg

Cc1ccc(NC(=O)NCc2ccns2)c(N(C)C)c1 [Example 60]
selectivity ratio [1]: ≤ 2
minimal effective dose (rats): 10 to 20 mg/kg

Cc1ccc(CNC(=O)Nc2ccns2)c(N(C)C)c1 [Example 61]
selectivity ratio [1]: ≤ 2
minimal effective dose (rats): ≤ 10 mg/kg

Cc1ccc(CNC(=O)NCc2ccccc2)c(N(C)C)c1 [Example 62]
selectivity ratio [1]: 2 to 4
minimal effective dose (rats): 10 to 20 mg/kg

Cc1cc(C)cc(CNC(=O)NCc2ccc(C)cc2N(C)C)c1 [Example 63]
selectivity ratio [1]: ≤ 2
minimal effective dose (rats): ≤ 10 mg/kg

Cc1ccc(CNC(=O)NCc2cnc[nH]2)c(N(C)C)c1 [Example 64]
selectivity ratio [1]: > 4
minimal effective dose (rats): ≤ 10 mg/kg

Cc1ccc(CNC(=O)NCc2ccnn2C)c(N(C)C)c1 [Example 65]
selectivity ratio [1]: > 4
minimal effective dose (rats): ≤ 10 mg/kg

Cc1ccc(CNC(=S)NCc2ccns2)c(N(C)C)c1 [Example 66]
selectivity ratio [1]: 2 to 4
minimal effective dose (rats): ≤ 10 mg/kg

Cc1ccc(CNC(=S)NCc2cccs2)c(N(C)C)c1 [Example 67]
selectivity ratio [1]: > 4
minimal effective dose (rats): ≤ 10 mg/kg

Cc1ccc(CNC(=S)NCc2ccns2)cc1N(C)C [Example 68]
selectivity ratio [1]: 2 to 4
minimal effective dose (rats): ≤ 10 mg/kg

Cc1ccc(CNC(=S)NCc2ccco2)c(N(C)C)c1 [Example 69]
selectivity ratio [1]: 2 to 4
minimal effective dose (rats): ≤ 10 mg/kg

Cc1ccc(CNC(=S)NCc2ccoc2)c(N(C)C)c1 [Example 70]
selectivity ratio [1]: ≤ 2
minimal effective dose (rats): 10 to 20 mg/kg

Cc1ccc(CNC(=S)NCc2ccco2)cc1N(C)C [Example 71]
selectivity ratio [1]: ≤ 2
minimal effective dose (rats): ≤ 10 mg/kg

Cc1ccc(CNC(=S)NCc2ccoc2)cc1N(C)C [Example 72]
selectivity ratio [1]: 2 to 4
minimal effective dose (rats): ≤ 10 mg/kg

Cc1ccc(CNC(=S)NCc2ncc[nH]2)c(N(C)C)c1 [Example 74]
selectivity ratio [1]: ≤ 2
minimal effective dose (rats): > 30 mg/kg

Cc1ccc(CNC(=N)NCc2ncc[nH]2)c(N(C)C)c1 [Example 75]
selectivity ratio [1]: 2 to 4
minimal effective dose (rats): ≤ 10 mg/kg

CCCc1ccc(CNC(=S)NCc2cccs2)c(N(C)C)c1 [Example 76]
selectivity ratio [1]: > 4
minimal effective dose (rats): ≤ 10 mg/kg

CCCc1ccc(CNC(=S)NCc2cccs2)cc1N(C)C [Example 77]
selectivity ratio [1]: 2 to 4
minimal effective dose (rats): ≤ 10 mg/kg

CN(C)c1ccc(CNC(=O)NCc2cccs2)cc1 [Example 78]
selectivity ratio [1]: ≤ 2
minimal effective dose (rats): 10 to 20 mg/kg

Cc1ccc(NC(=S)Nc2ccsc2)cc1N(C)C [Example 79]
selectivity ratio [1]: ≤ 2
minimal effective dose (rats): 20 to 30 mg/kg

Cc1ccc(CCNC(=S)Nc2cccs2)c(N(C)C)c1 [Example 81]
selectivity ratio [1]: 2 to 4
minimal effective dose (rats): ≤ 10 mg/kg

[2H]C([2H])([2H])N(c1cc(C)ccc1CNC(=S)NCc1cccs1)C([2H])([2H])[2H] [Example 82]
selectivity ratio [1]: 2 to 4
minimal effective dose (rats): ≤ 10 mg/kg

Cc1ccc(NC(=S)Nc2cccs2)c(N(C)C)c1 [Example 83]
selectivity ratio [1]: > 4
minimal effective dose (rats): ≤ 10 mg/kg

Cc1ccc(CNC(=S)NCc2ccccc2)c(N(C)C)c1 [Example 85]
selectivity ratio [1]: ≤ 2
minimal effective dose (rats): ≤ 10 mg/kg

Cc1ccc(CNC(=S)NCc2ccccc2)cc1N(C)C [Example 86]
selectivity ratio [1]: 2 to 4
minimal effective dose (rats): ≤ 10 mg/kg

Cc1ccc(CNC(=S)NCc2ccnn2C)c(N(C)C)c1 [Example 87]
selectivity ratio [1]: > 4
minimal effective dose (rats): ≤ 10 mg/kg

CN(C)c1cc(C(F)(F)F)ccc1CNC(=S)NCc1cccs1 [Example 88]
selectivity ratio [1]: > 4
minimal effective dose (rats): ≤ 10 mg/kg

Cc1ccc(CNC(=S)NCc2cccs2)c(N2CCOCC2)c1 [Example 89]
selectivity ratio [1]: 2 to 4
minimal effective dose (rats): ≤ 10 mg/kg

Cc1ccc(CNC(=N)NCc2ccns2)c(N(C)C)c1 [Example 90]
selectivity ratio [1]: 2 to 4
minimal effective dose (rats): ≤ 10 mg/kg

Cc1ccc(CNC(=N)NCc2ccno2)c(N(C)C)c1 [Example 92]
selectivity ratio [1]: 2 to 4
minimal effective dose (rats): ≤ 10 mg/kg

Cc1ccc(CNC(=S)NCc2cc3ccccc3s2)c(N(C)C)c1 [Example 93]
selectivity ratio [1]: ≤ 2
minimal effective dose (rats): ≤ 10 mg/kg

Cc1ccc(CNC(=S)NCc2ccc3ccsc3c2)c(N(C)C)c1 [Example 94]
selectivity ratio [1]: > 4
minimal effective dose (rats): ≤ 10 mg/kg

CN(C)c1cccc(NC(=N)Nc2cccs2)c1 [Example 95]
selectivity ratio [1]: ≤ 2
minimal effective dose (rats): ≤ 10 mg/kg

CN(C)c1cccc(NC(=N)Nc2ccsc2)c1 [Example 96]
selectivity ratio [1]: ≤ 2
minimal effective dose (rats): ≤ 10 mg/kg

CN(C)c1ccccc1NC(=O)Nc1ccns1 [Example 97]
selectivity ratio [1]: ≤ 2
minimal effective dose (rats): > 30 mg/kg

Cc1ccc(CSC(=S)SCc2cccs2)c(N(C)C)c1 [Example 98]
selectivity ratio [1]: ≤ 2
minimal effective dose (rats): > 30 mg/kg

Cc1ccc(CSC(=O)OCc2ccsc2)c(N(C)C)c1 [Example 99]
selectivity ratio [1]: ≤ 2
minimal effective dose (rats): > 30 mg/kg

Cc1ccc(COC(=S)SCc2ccsc2)c(N(C)C)c1 [Example 100]
selectivity ratio [1]: ≤ 2
minimal effective dose (rats): > 30 mg/kg

Cc1ccc(CSC(=O)SCc2cccs2)c(N(C)C)c1 [Example 101]
selectivity ratio [1]: 2 to 4
minimal effective dose (rats): > 30 mg/kg

Cc1ccc(CNC(=O)Nc2ncc[nH]2)c(N(C)C)c1 [Example 103]
selectivity ratio [1]: > 4
minimal effective dose (rats): ≤ 10 mg/kg

Cc1ccc(CNC(=O)Nc2ccn[nH]2)c(N(C)C)c1 [Example 104]
selectivity ratio [1]: ≤ 2
minimal effective dose (rats): > 30 mg/kg

CN(C)c1cc(CNC(=O)NCc2ccco2)ccc1C(F)(F)F [Example 105]
selectivity ratio [1]: > 4
minimal effective dose (rats): ≤ 10 mg/kg

Cc1ccc(CNC(=S)Nc2cncs2)c(N(C)C)c1 [Example 106]
selectivity ratio [1]: > 4
minimal effective dose (rats): ≤ 10 mg/kg

Cc1ccc(CNC(=S)NCc2cc(C)nn2C)c(N(C)C)c1 [Example 107]
selectivity ratio [1]: 2 to 4
minimal effective dose (rats): 10 to 20 mg/kg

Cc1ccc(CNC(=N)NCc2cc(C)nn2C)c(N(C)C)c1 [Example 108]
selectivity ratio [1]: > 4
minimal effective dose (rats): ≤ 10 mg/kg

Cc1ccc(CNC(=N)NCc2ccnn2C)cc1N(C)C [Example 109]
selectivity ratio [1]: ≤ 2
minimal effective dose (rats): ≤ 10 mg/kg

Cc1cc(CNC(=N)NCc2ccc(C)c(N(C)C)c2)n(C)n1 [Example 110]
selectivity ratio [1]: ≤ 2
minimal effective dose (rats): ≤ 10 mg/kg

Cc1ccc(CNC(=N)NCc2ccnn2C)c(N(C)C)c1 [Example 111]
selectivity ratio [1]: ≤ 2
minimal effective dose (rats): ≤ 10 mg/kg

Cc1ccc(CNC(=O)NCc2ccnn2C)cc1N(C)C [Example 112]
selectivity ratio [1]: > 4
minimal effective dose (rats): ≤ 10 mg/kg

Cc1cc(CNC(=O)NCc2ccc(C)c(N(C)C)c2)n(C)n1 [Example 113]
selectivity ratio [1]: > 4
minimal effective dose (rats): 10 to 20 mg/kg

CCCCc1ccc(CNC(=S)Nc2cccs2)c(N(C)C)c1 [Example 114]
selectivity ratio [1]: 2 to 4
minimal effective dose (rats): ≤ 10 mg/kg

Cc1cc(CNC(=S)NCc2ccc(C)c(N(C)C)c2)n(C)n1 [Example 115]
selectivity ratio [1]: > 4
minimal effective dose (rats): ≤ 10 mg/kg

Cc1ccc(CNC(=S)NCc2ccnn2C)cc1N(C)C [Example 116]
selectivity ratio [1]: 2 to 4
minimal effective dose (rats): ≤ 10 mg/kg

Cc1ccc(CNC(=O)NCc2cc(C)nn2C)c(N(C)C)c1 [Example 117]
selectivity ratio [1]: 2 to 4
minimal effective dose (rats): > 30 mg/kg

CN(C)c1cc(C(C)(C)C)ccc1CNC(=S)NCc1cccs1 [Example 118]
selectivity ratio [1]: ≤ 2
minimal effective dose (rats): ≤ 10 mg/kg

CN(C)c1cc(C2CC2)ccc1CNC(=S)NCc1cccs1 [Example 119]
selectivity ratio [1]: ≤ 2
minimal effective dose (rats): ≤ 10 mg/kg

CCCCc1ccc(CNC(=O)NCc2ccco2)cc1N(C)C [Example 120]
selectivity ratio [1]: > 4
minimal effective dose (rats): ≤ 10 mg/kg

Cc1ccc(CSC(=S)OCc2ccsc2)c(N(C)C)c1 [Example 121]
selectivity ratio [1]: 2 to 4
minimal effective dose (rats): > 30 mg/kg
